In ChEMBL document CHEMBL4477252, “Optimization of microtubule affinity regulating kinase (MARK) inhibitors with improved physical properties” (Bioorg Med Chem Lett, 2016):

What was measured:
[1] = molecular target: MAP/microtubule affinity-regulating kinase 3 (Homo sapiens, UniProt P27448); assay: Inhibition of full-length recombinant human GST-tagged MARK3 expressed in baculovirus expression system using biotinylated-Cdc25C peptide substrate measured after 2 hrs by HTRF assay
[2] = molecular target: T1, Mitogen-activated protein kinase 13 (Homo sapiens, UniProt O15264); assay: Inhibition of full-length recombinant human His-tagged MAPK13 expressed in baculovirus expression system by Z'-LYTE assay
T1 sequence (O15264 whole entry): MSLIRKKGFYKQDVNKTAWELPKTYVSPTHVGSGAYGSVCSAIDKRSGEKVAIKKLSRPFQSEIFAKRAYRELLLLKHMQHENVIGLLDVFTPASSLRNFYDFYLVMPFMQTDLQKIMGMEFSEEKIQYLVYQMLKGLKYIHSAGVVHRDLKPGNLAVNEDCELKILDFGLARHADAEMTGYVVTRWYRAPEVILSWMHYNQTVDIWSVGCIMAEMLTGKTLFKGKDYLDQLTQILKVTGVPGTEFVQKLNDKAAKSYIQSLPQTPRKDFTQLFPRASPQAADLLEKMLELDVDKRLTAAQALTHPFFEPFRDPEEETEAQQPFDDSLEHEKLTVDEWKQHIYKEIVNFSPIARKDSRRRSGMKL

[3] = molecular target: Epidermal growth factor receptor (Homo sapiens, UniProt P00533); assay: Inhibition of recombinant human His-tagged EGFR expressed in mammalian expression system by Z'-LYTE assay
[4] = molecular target: T2, Beta-adrenergic receptor kinase 1 (Homo sapiens, UniProt P25098); assay: Inhibition of full-length recombinant human His-tagged ADRBK1 expressed in baculovirus expression system by Z'-LYTE assay
T2 sequence (P25098 whole entry): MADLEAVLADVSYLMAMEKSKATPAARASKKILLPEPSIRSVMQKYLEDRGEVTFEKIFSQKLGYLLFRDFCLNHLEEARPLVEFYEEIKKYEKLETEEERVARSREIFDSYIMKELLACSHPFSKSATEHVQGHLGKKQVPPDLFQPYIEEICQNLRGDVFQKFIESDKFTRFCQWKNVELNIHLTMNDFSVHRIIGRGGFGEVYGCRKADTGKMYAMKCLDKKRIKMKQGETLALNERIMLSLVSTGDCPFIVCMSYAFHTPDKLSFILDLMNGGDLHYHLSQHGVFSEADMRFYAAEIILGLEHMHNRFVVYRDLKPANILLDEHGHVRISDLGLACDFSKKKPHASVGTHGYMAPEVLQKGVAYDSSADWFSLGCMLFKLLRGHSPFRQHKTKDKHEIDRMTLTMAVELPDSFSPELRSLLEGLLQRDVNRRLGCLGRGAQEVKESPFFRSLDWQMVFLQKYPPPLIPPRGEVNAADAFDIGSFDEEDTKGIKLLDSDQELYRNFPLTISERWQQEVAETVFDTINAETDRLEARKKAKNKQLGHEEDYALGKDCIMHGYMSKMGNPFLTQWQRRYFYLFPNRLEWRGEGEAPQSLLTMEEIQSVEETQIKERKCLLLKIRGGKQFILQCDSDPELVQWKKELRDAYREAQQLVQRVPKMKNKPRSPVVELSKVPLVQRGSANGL

[5] = molecular target: T3, Interleukin-1 receptor-associated kinase 4 (Homo sapiens, UniProt Q9NWZ3); assay: Inhibition of full-length recombinant human His-tagged IRAK4 expressed in baculovirus expression system by Z'-LYTE assay
T3 sequence (Q9NWZ3 whole entry): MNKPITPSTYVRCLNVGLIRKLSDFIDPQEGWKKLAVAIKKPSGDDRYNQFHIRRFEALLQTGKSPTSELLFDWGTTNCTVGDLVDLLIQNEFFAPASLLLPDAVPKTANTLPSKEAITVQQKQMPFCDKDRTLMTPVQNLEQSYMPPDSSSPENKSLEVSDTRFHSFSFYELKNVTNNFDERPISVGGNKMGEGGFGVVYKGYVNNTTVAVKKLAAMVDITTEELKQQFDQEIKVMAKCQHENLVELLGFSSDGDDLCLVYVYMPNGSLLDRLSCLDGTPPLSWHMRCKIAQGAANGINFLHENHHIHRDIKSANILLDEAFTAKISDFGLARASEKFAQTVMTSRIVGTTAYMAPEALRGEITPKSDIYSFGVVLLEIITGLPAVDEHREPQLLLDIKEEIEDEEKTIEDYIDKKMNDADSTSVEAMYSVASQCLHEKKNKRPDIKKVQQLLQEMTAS

[6] = molecular target: High affinity nerve growth factor receptor (Homo sapiens, UniProt P04629); assay: Inhibition of recombinant human His-tagged cytoplasmic NTRK1 expressed in baculovirus expression system by Z'-LYTE assay
[7] = molecular target: Ribosomal protein S6 kinase beta-1 (Homo sapiens, UniProt P23443); assay: Inhibition of full-length recombinant human GST-tagged RPS6KB1 catalytic domain expressed in baculovirus expression system by Z'-LYTE assay
[8] = molecular target: PI3-kinase p110-delta/p85-alpha (Homo sapiens, UniProt O00329); assay: Inhibition of full-length recombinant human His-tagged PIK3P110D/P85A expressed in baculovirus expression system by Adapta assay
[9] = molecular target: Mitogen-activated protein kinase 14 (Homo sapiens, UniProt Q16539); assay: Inhibition of full-length recombinant human GST-tagged MAPK14 alpha expressed in Escherichia coli by Z'-LYTE assay
[10] = molecular target: Mitogen-activated protein kinase 8 (Homo sapiens, UniProt P45983); assay: Inhibition of full-length recombinant human His-tagged MAPK8 expressed in baculovirus expression system by Z'-LYTE assay
[11] = molecular target: Casein kinase II subunit alpha (Homo sapiens, UniProt P68400); assay: Inhibition of full-length recombinant human His-tagged CSNK2A1 expressed in baculovirus expression system by Z'-LYTE assay
[12] = molecular target: Serine/threonine-protein kinase MRCK alpha (Homo sapiens, UniProt Q5VT25); assay: Inhibition of recombinant human His-tagged CDC42BPA catalytic domain expressed in baculovirus expression system by Z'-LYTE assay
Angiopoietin-1 receptor = Angiopoietin-1 receptor (Homo sapiens, UniProt Q02763); assay: Inhibition of recombinant human GST-tagged cytoplasmic TEK expressed in baculovirus expression system by Z'-LYTE assay
[13] = molecular target: Fibroblast growth factor receptor 2 (Homo sapiens, UniProt P21802); assay: Inhibition of recombinant human His-tagged cytoplasmic FGFR2 expressed in baculovirus expression system by Z'-LYTE assay
[14] = molecular target: Cyclin-dependent kinase 5/CDK5 activator 1 (Homo sapiens, UniProt Q00535); assay: Inhibition of full-length recombinant human GST and His-tagged CDK5/P25 expressed in baculovirus expression system by Z'-LYTE assay
Chain of Cyclin-dependent kinase 5/CDK5 activator 1 (Q00535 whole entry): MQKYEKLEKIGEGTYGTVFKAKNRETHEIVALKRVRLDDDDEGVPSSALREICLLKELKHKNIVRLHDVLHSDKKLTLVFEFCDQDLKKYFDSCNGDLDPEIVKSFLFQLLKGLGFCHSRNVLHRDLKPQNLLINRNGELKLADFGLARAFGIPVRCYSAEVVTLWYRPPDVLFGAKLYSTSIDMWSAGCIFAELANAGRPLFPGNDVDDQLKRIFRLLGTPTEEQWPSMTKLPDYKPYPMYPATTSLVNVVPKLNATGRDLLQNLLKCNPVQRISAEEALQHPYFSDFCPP
Chain of Cyclin-dependent kinase 5/CDK5 activator 1 (Q15078 whole entry, further chain): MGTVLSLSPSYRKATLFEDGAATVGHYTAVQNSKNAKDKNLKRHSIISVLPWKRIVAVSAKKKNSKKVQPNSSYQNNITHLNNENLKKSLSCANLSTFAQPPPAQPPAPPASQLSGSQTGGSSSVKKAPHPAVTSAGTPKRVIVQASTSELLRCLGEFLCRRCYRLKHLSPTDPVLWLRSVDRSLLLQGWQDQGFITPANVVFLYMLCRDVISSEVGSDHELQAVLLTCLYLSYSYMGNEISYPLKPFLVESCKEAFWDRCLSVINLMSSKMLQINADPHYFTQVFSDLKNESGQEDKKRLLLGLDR

Chain of High affinity nerve growth factor receptor (P04629 whole entry, the tested form may be a part): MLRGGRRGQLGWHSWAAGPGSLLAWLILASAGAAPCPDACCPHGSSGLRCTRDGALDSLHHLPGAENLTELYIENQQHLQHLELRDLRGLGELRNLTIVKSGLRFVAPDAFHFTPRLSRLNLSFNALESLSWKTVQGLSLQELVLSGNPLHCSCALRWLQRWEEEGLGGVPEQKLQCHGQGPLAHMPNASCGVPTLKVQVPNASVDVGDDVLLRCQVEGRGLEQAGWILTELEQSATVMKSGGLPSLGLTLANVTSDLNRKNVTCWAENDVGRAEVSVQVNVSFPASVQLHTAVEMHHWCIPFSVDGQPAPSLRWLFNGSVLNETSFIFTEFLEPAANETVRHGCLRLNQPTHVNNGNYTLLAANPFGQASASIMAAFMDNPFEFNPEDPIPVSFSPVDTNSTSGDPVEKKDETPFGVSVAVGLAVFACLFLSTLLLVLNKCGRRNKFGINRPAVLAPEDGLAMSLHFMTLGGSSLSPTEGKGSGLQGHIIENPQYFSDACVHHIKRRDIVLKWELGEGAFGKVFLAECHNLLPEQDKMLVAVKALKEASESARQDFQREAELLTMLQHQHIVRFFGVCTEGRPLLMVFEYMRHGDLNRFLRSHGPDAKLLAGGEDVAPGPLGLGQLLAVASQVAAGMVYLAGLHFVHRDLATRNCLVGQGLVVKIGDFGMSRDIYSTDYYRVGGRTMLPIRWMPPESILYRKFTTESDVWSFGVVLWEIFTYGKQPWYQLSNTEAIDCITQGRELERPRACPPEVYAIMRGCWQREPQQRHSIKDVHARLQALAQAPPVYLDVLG
Chain of Angiopoietin-1 receptor (Q02763 whole entry): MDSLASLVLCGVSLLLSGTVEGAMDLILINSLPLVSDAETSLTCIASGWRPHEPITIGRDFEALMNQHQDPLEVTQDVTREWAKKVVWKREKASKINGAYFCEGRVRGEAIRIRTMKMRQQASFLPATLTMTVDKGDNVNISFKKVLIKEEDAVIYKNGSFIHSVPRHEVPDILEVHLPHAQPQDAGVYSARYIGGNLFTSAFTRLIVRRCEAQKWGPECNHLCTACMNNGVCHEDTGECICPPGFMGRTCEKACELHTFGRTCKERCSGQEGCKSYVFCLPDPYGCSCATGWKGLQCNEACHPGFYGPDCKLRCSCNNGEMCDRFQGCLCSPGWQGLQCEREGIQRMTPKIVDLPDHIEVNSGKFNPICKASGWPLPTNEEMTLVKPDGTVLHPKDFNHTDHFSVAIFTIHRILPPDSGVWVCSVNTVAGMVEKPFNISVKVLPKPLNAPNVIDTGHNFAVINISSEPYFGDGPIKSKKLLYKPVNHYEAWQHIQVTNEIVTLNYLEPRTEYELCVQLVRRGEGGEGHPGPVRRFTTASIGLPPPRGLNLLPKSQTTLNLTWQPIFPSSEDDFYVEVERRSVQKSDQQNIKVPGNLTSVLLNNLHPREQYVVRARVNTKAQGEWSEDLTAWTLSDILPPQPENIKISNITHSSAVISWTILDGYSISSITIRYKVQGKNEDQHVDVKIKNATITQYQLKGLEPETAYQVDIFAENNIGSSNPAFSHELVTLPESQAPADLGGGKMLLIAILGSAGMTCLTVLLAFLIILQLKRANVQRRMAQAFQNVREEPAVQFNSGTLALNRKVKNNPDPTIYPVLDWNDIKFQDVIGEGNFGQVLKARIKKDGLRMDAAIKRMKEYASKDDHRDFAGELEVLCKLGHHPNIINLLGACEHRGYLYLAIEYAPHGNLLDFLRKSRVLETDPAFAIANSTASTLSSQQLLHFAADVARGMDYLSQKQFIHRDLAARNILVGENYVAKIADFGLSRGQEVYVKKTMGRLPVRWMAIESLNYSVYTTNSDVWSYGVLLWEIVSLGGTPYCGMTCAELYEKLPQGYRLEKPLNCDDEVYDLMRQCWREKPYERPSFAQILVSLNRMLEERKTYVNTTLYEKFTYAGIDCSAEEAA
Chain of Fibroblast growth factor receptor 2 (P21802 whole entry): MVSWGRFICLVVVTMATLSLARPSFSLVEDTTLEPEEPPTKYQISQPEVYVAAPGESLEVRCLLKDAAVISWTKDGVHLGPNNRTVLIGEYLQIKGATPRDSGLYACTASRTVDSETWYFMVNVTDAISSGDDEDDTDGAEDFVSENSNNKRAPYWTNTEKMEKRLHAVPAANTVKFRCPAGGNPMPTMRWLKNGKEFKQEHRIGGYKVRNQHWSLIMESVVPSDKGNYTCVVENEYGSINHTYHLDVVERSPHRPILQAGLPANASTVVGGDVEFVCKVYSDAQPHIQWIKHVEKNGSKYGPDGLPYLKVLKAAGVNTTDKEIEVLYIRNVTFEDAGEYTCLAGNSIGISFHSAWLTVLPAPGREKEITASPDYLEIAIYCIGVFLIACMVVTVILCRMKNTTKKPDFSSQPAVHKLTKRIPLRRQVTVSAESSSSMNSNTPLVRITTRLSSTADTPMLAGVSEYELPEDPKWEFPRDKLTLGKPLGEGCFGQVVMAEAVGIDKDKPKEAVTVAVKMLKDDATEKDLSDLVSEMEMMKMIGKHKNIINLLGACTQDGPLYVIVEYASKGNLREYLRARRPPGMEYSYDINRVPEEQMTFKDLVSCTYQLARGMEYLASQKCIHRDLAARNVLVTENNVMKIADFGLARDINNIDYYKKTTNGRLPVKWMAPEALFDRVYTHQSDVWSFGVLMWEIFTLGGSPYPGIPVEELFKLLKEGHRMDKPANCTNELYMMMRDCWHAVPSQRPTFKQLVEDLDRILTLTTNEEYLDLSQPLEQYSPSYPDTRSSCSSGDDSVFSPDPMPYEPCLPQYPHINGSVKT
Chain of MAP/microtubule affinity-regulating kinase 3 (P27448 whole entry): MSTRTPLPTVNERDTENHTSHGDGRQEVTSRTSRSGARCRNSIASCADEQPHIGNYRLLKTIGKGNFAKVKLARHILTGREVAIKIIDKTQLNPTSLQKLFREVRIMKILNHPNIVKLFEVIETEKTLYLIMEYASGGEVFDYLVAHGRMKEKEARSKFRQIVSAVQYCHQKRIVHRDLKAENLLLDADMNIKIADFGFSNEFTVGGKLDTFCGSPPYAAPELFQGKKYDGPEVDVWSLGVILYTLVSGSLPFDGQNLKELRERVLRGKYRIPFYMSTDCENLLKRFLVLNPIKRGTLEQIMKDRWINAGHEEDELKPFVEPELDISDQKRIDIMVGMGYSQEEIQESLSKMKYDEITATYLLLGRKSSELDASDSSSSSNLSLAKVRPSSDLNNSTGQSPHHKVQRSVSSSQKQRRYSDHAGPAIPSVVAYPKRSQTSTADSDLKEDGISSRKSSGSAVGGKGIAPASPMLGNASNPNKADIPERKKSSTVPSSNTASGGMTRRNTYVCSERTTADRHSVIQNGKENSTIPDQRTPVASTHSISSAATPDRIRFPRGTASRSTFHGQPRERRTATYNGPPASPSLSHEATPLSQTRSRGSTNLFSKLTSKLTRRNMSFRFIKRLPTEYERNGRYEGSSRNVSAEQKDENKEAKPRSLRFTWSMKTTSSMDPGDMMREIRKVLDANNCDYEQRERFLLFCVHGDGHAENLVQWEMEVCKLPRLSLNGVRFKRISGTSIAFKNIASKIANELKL
Chain of Ribosomal protein S6 kinase beta-1 (P23443 whole entry, the tested form may be a part): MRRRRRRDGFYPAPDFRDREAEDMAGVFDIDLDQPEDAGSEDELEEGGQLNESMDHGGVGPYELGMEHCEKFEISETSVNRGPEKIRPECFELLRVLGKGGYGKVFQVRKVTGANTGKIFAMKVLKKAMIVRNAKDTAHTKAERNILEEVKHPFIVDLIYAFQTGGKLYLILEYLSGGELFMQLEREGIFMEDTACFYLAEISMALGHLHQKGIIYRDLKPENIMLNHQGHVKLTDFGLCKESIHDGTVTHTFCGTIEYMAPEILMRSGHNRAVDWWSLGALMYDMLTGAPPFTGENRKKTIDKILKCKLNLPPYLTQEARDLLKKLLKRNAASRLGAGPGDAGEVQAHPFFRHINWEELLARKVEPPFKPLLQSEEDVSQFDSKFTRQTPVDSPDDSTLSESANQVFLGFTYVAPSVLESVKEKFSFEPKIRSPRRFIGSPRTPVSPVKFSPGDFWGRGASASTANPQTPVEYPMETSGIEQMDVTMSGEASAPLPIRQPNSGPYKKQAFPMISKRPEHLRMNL
Chain of Casein kinase II subunit alpha (P68400 whole entry, the tested form may be a part): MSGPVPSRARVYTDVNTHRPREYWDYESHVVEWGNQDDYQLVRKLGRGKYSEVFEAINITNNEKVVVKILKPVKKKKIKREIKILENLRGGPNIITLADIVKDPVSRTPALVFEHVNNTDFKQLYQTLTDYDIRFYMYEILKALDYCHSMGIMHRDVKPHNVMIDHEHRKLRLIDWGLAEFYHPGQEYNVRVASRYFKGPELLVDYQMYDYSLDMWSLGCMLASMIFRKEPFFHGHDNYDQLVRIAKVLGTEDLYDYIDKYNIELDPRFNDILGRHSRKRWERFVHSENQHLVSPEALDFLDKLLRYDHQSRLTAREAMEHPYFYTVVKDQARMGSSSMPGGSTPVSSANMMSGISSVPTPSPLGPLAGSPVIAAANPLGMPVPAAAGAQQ

Structure (SMILES)	IC50 [1]	IC50 [2]	IC50 [3]	IC50 [4]	IC50 [5]	IC50 [6]	IC50 [7]	IC50 [8]	IC50 [9]	IC50 [10]	IC50 [11]	IC50 [12]	IC50 (Angiopoietin-1 receptor)	IC50 [13]	IC50 [14]
Cn1cc(-c2cnc3c(-c4csc(C(=O)N[C@@H]5CCCC[C@@H]5N)c4)cnn3c2)cn1 (racemic)	≤ 0.5 nM	39 nM	340 nM	0.16 µM	23 nM	50 nM	8 nM	3.3 µM	1400 nM	1.2 µM	> 10 µM	72 nM	0.66 µM	11 nM	4.4 nM
Cn1cc(-c2cnc3c(-c4csc(C(=O)NCC(F)(F)F)c4)cnn3c2)cn1	6 nM	2200 nM	28000 nM	23 µM	64 nM	540 nM	110 nM	1.5 µM	36000 nM	24 µM	> 100 µM	9200 nM	4.7 µM	170 nM	< 10 nM
Cc1sc(C(=O)N[C@@H]2[C@H](N)CCCC2(F)F)cc1-c1cnn2cc(Cl)cnc12	5 nM	160 nM	> 100000 nM	11 µM	3000 nM	2100 nM	1500 nM	> 100 µM	> 100000 nM	15 µM	> 100 µM	1000 nM	> 100 µM	17000 nM	61 nM
O=C(NCC(F)(F)F)c1cc(-c2cnn3cc(-c4ccc(OCCN5CCCCC5)cc4)cnc23)cs1	1 nM	13000 nM	1100 nM	0.61 µM	210 nM	310 nM	88 nM	55 µM	1200 nM	2.8 µM	8.3 µM	1200 nM	4.7 µM	70 nM	19 nM
